The supplement of paper PMC13380429

Legend:
[1] = tested on: A549-ACE2 infected with SARS-CoV-2; assay: cell count relative to DMSO; higher = less toxic; settings: 24 h
Caco-2 [2] = assay: cell viability relative to DMSO; higher = less toxic; settings: 72 h
Calu-3 [3] = assay: as above; settings: 72 h
HepG2 [4] = assay: as above; settings: 72 h
U2OS [5] = assay: as above; settings: 72 h
Vero E6 [6] = assay: as above; settings: 72 h
[7] = tested on: A549-ACE2 infected with SARS-CoV-2; assay: SARS-CoV-2 infection rate relative to DMSO; higher = more infection; settings: 24 h
A549-ACE2 [8] = assay: phospholipidosis EC50; higher = less potent phospholipidosis inducer
A549-ACE2 [9] = assay: drug-induced phospholipidosis relative to tamoxifen; higher = more phospholipidosis
[10] = tested on: A549-ACE2 infected with SARS-CoV-2; assay: morphology score (similarity to uninfected cells); higher = more like uninfected cells; settings: 24 h
HepG2 [11] = assay: relative viability EC50 (midpoint between 100% and the lowest measured viability); higher = less toxic; settings: 72 h
U2OS [12] = assay: as above; settings: 72 h
Vero E6 [13] = assay: as above; settings: 72 h
Caco-2 [14] = assay: drug sensitivity score (DSS) for viability; higher = more toxic; extreme values may be limits of the assay; settings: 72 h
Calu-3 [15] = assay: as above; settings: 72 h
HepG2 [16] = assay: as above; settings: 72 h
U2OS [17] = assay: as above; settings: 72 h
Vero E6 [18] = assay: as above; settings: 72 h
Calu-3 [19] = assay: relative viability EC50 (midpoint between 100% and the lowest measured viability); higher = less toxic; settings: 72 h
Caco-2 [20] = assay: as above; settings: 72 h

CCOc1cn(-c2ccc(F)cc2C)nc1C(=O)Nc1ccc(Oc2ccnc3cc(OC)c(OC)cc23)c(F)c1 [LDC1267]
Settings	SARS-CoV-2 infection rate [%]	cell count [%]	cell viability [%]	morphology score	phospholipidosis EC50 [µM]
A549-ACE2 [8], 24 h	–	–	–	–	3.79
A549-ACE2 [8], 72 h	–	–	–	–	3.79
Caco-2 [2], 1 nM	–	–	95.3	–	–
Caco-2 [2], 10 nM	–	–	96.1	–	–
Caco-2 [2], 100 nM	–	–	94.7	–	–
Caco-2 [2], 1000 nM	–	–	91.9	–	–
Caco-2 [2], 10000 nM	–	–	68.7	–	–
Calu-3 [3], 1 nM	–	–	100	–	–
Calu-3 [3], 10 nM	–	–	99	–	–
Calu-3 [3], 100 nM	–	–	95.3	–	–
Calu-3 [3], 1000 nM	–	–	87.9	–	–
Calu-3 [3], 10000 nM	–	–	73	–	–
HepG2 [4], 1 nM	–	–	106	–	–
HepG2 [4], 10 nM	–	–	94.7	–	–
HepG2 [4], 100 nM	–	–	99.9	–	–
HepG2 [4], 1000 nM	–	–	88.5	–	–
HepG2 [4], 10000 nM	–	–	76.2	–	–
U2OS [5], 1 nM	–	–	97.5	–	–
U2OS [5], 10 nM	–	–	101	–	–
U2OS [5], 100 nM	–	–	98.4	–	–
U2OS [5], 1000 nM	–	–	102	–	–
U2OS [5], 10000 nM	–	–	83.1	–	–
Vero E6 [6], 1 nM	–	–	105	–	–
Vero E6 [6], 10 nM	–	–	103	–	–
Vero E6 [6], 100 nM	–	–	103	–	–
Vero E6 [6], 1000 nM	–	–	96.9	–	–
Vero E6 [6], 10000 nM	–	–	100	–	–
[1], 0.3 µM	–	102	–	–	–
[1], 3 µM	–	100	–	–	–
[1], 10 µM	–	91	–	–	–
[1], 30 µM	–	84	–	–	–
[7], 0.3 µM	91	–	–	–	–
[7], 3 µM	107	–	–	–	–
[7], 10 µM	90	–	–	–	–
[7], 30 µM	93	–	–	–	–
[10], 0.3 µM	–	–	–	0.33	–
[10], 3 µM	–	–	–	0.25	–
[10], 10 µM	–	–	–	0.23	–
[10], 30 µM	–	–	–	0.15	–

drug-induced phospholipidosis [%], A549-ACE2 [9]
Settings	0.3 µM	0.833333 µM	3.33333 µM	6.66667 µM	10 µM	30 µM
24 h	2.46	2.17	18.8	41.1	67	35
48 h	6.67	3.21	28.6	39.5	–	48.4
72 h	7.89	6.46	31.2	48.2	–	61.4

Settings	drug sensitivity score	relative viability EC50 [µM]
Caco-2 [14]	2.4	–
Calu-3 [15]	2	–
HepG2 [11]	–	> 10
HepG2 [16]	2.2	–
U2OS [12]	–	> 10
U2OS [17]	0.3	–
Vero E6 [13]	–	> 10
Vero E6 [18]	0	–

CC(C)(Cc1ccc2ccccc2c1)NC[C@@H](O)COc1cccc(Cl)c1C#N [NPS-2143]
Settings	SARS-CoV-2 infection rate [%]	cell count [%]	cell viability [%]	morphology score	phospholipidosis EC50 [µM]
A549-ACE2 [8], 24 h	–	–	–	–	1.06
A549-ACE2 [8], 48 h	–	–	–	–	2.34
A549-ACE2 [8], 72 h	–	–	–	–	3.1
Caco-2 [2], 1 nM	–	–	99.1	–	–
Caco-2 [2], 10 nM	–	–	101	–	–
Caco-2 [2], 100 nM	–	–	103	–	–
Caco-2 [2], 1000 nM	–	–	100	–	–
Caco-2 [2], 10000 nM	–	–	50.5	–	–
Calu-3 [3], 1 nM	–	–	89.4	–	–
Calu-3 [3], 10 nM	–	–	95.8	–	–
Calu-3 [3], 100 nM	–	–	96.7	–	–
Calu-3 [3], 1000 nM	–	–	103	–	–
Calu-3 [3], 10000 nM	–	–	0.6	–	–
HepG2 [4], 1 nM	–	–	100	–	–
HepG2 [4], 10 nM	–	–	104	–	–
HepG2 [4], 100 nM	–	–	103	–	–
HepG2 [4], 1000 nM	–	–	101	–	–
HepG2 [4], 10000 nM	–	–	53.9	–	–
U2OS [5], 1 nM	–	–	100	–	–
U2OS [5], 10 nM	–	–	97.9	–	–
U2OS [5], 100 nM	–	–	105	–	–
U2OS [5], 1000 nM	–	–	96.1	–	–
U2OS [5], 10000 nM	–	–	39.1	–	–
Vero E6 [6], 1 nM	–	–	93.1	–	–
Vero E6 [6], 10 nM	–	–	97.6	–	–
Vero E6 [6], 100 nM	–	–	93.5	–	–
Vero E6 [6], 1000 nM	–	–	99.6	–	–
Vero E6 [6], 10000 nM	–	–	84.4	–	–
[1], 0.3 µM	–	100	–	–	–
[1], 3 µM	–	113	–	–	–
[1], 10 µM	–	68	–	–	–
[7], 0.3 µM	101	–	–	–	–
[7], 3 µM	23	–	–	–	–
[7], 10 µM	43	–	–	–	–
[10], 0.3 µM	–	–	–	0.09	–
[10], 3 µM	–	–	–	0.87	–
[10], 10 µM	–	–	–	0.11	–

drug-induced phospholipidosis [%], A549-ACE2 [9]
Settings	0.3 µM	0.833333 µM	3.33333 µM	6.66667 µM	10 µM	30 µM
24 h	14.7	30.2	98.4	140	135	14.7
48 h	8.59	25.2	96.8	135	132	–
72 h	10.7	13.3	94	135	133	–

Settings	drug sensitivity score	relative viability EC50 [µM]
Caco-2 [14]	2.6	–
Calu-3 [15]	5.3	–
Calu-3 [19]	–	3.32
HepG2 [16]	2.3	–
U2OS [12]	–	2.65
U2OS [17]	3.9	–
Vero E6 [13]	–	> 10
Vero E6 [18]	0.3	–

Fc1cc(-c2cccc3ncc(-c4cnn(C5CCNCC5)c4)nc23)cc(F)c1CN1CCOCC1 [NVP-BSK805]
Settings	SARS-CoV-2 infection rate [%]	cell count [%]	cell viability [%]	morphology score	phospholipidosis EC50 [µM]
A549-ACE2 [8], 24 h	–	–	–	–	3.94
A549-ACE2 [8], 48 h	–	–	–	–	9.74
A549-ACE2 [8], 72 h	–	–	–	–	4.49
Caco-2 [2], 1 nM	–	–	99.5	–	–
Caco-2 [2], 10 nM	–	–	98.8	–	–
Caco-2 [2], 100 nM	–	–	104	–	–
Caco-2 [2], 1000 nM	–	–	105	–	–
Caco-2 [2], 10000 nM	–	–	39.8	–	–
Calu-3 [3], 1 nM	–	–	99.5	–	–
Calu-3 [3], 10 nM	–	–	97.2	–	–
Calu-3 [3], 100 nM	–	–	95	–	–
Calu-3 [3], 1000 nM	–	–	104	–	–
Calu-3 [3], 10000 nM	–	–	69.6	–	–
HepG2 [4], 1 nM	–	–	106	–	–
HepG2 [4], 10 nM	–	–	110	–	–
HepG2 [4], 100 nM	–	–	96.2	–	–
HepG2 [4], 1000 nM	–	–	93.1	–	–
HepG2 [4], 10000 nM	–	–	35.8	–	–
U2OS [5], 1 nM	–	–	101	–	–
U2OS [5], 10 nM	–	–	101	–	–
U2OS [5], 100 nM	–	–	97.6	–	–
U2OS [5], 1000 nM	–	–	97.2	–	–
U2OS [5], 10000 nM	–	–	22.9	–	–
Vero E6 [6], 1 nM	–	–	97.9	–	–
Vero E6 [6], 10 nM	–	–	102	–	–
Vero E6 [6], 100 nM	–	–	100	–	–
Vero E6 [6], 1000 nM	–	–	99.9	–	–
Vero E6 [6], 10000 nM	–	–	48.4	–	–
[1], 0.1 µM	–	102	–	–	–
[1], 0.3 µM	–	103	–	–	–
[1], 1 µM	–	105	–	–	–
[1], 3 µM	–	110	–	–	–
[7], 0.1 µM	96	–	–	–	–
[7], 0.3 µM	100	–	–	–	–
[7], 1 µM	86	–	–	–	–
[7], 3 µM	45	–	–	–	–
[10], 0.1 µM	–	–	–	0.17	–
[10], 0.3 µM	–	–	–	0.13	–
[10], 1 µM	–	–	–	0.47	–
[10], 3 µM	–	–	–	0.68	–

drug-induced phospholipidosis [%], A549-ACE2 [9]
Settings	0.3 µM	0.833333 µM	3.33333 µM	6.66667 µM	10 µM	30 µM
24 h	5.98	16	55.1	93.5	113	119
48 h	2.53	10.2	51.2	101	134	–
72 h	5.16	6.57	55.6	119	–	–

Settings	drug sensitivity score	relative viability EC50 [µM]
Caco-2 [14]	2.9	–
Caco-2 [20]	–	3.55
Calu-3 [15]	1.1	–
HepG2 [11]	–	2.28
HepG2 [16]	4.6	–
U2OS [12]	–	2.9
U2OS [17]	4.6	–
Vero E6 [13]	–	3.15
Vero E6 [18]	2.7	–

CN1CC2c3ccccc3Oc3ccc(Cl)cc3C2C1 (centres undefined) [asenapine]
Settings	SARS-CoV-2 infection rate [%]	cell count [%]	cell viability [%]	morphology score	phospholipidosis EC50 [µM]
A549-ACE2 [8], 24 h	–	–	–	–	7.2
A549-ACE2 [8], 48 h	–	–	–	–	7.65
A549-ACE2 [8], 72 h	–	–	–	–	9.6
Caco-2 [2], 1 nM	–	–	94.9	–	–
Caco-2 [2], 10 nM	–	–	108	–	–
Caco-2 [2], 100 nM	–	–	106	–	–
Caco-2 [2], 1000 nM	–	–	108	–	–
Caco-2 [2], 10000 nM	–	–	109	–	–
Calu-3 [3], 1 nM	–	–	94.9	–	–
Calu-3 [3], 10 nM	–	–	96.5	–	–
Calu-3 [3], 100 nM	–	–	90.8	–	–
Calu-3 [3], 1000 nM	–	–	104	–	–
Calu-3 [3], 10000 nM	–	–	89.2	–	–
HepG2 [4], 1 nM	–	–	112	–	–
HepG2 [4], 10 nM	–	–	106	–	–
HepG2 [4], 100 nM	–	–	103	–	–
HepG2 [4], 1000 nM	–	–	96.3	–	–
HepG2 [4], 10000 nM	–	–	96.7	–	–
U2OS [5], 1 nM	–	–	99.5	–	–
U2OS [5], 10 nM	–	–	105	–	–
U2OS [5], 100 nM	–	–	101	–	–
U2OS [5], 1000 nM	–	–	108	–	–
U2OS [5], 10000 nM	–	–	98.2	–	–
[1], 0.3 µM	–	102	–	–	–
[1], 3 µM	–	118	–	–	–
[1], 10 µM	–	109	–	–	–
[1], 30 µM	–	102	–	–	–
[7], 0.3 µM	94	–	–	–	–
[7], 3 µM	59	–	–	–	–
[7], 10 µM	32	–	–	–	–
[7], 30 µM	30	–	–	–	–
[10], 0.3 µM	–	–	–	0.2	–
[10], 3 µM	–	–	–	0.63	–
[10], 10 µM	–	–	–	0.71	–
[10], 30 µM	–	–	–	0.39	–

drug-induced phospholipidosis [%], A549-ACE2 [9]
Settings	0.3 µM	0.833333 µM	3.33333 µM	6.66667 µM	10 µM	30 µM
24 h	0.93	1.66	23.3	56.2	82.5	115
48 h	2.52	0.05	14.9	49	77.2	111
72 h	4.59	1.7	16.8	43.5	70.2	117

Settings	drug sensitivity score	relative viability EC50 [µM]
Caco-2 [14]	0	–
Caco-2 [20]	–	> 10
Calu-3 [15]	0	–
Calu-3 [19]	–	> 10
HepG2 [11]	–	> 10
HepG2 [16]	0	–
U2OS [12]	–	> 10
U2OS [17]	0	–
